Series [1] addresses T1, (Ovis aries, UniProt P05979).
T1 construct: purchased Cayman Chemicals Inc., Ann Arbor, MI, USA 560131
T1 sequence (P05979 25-600): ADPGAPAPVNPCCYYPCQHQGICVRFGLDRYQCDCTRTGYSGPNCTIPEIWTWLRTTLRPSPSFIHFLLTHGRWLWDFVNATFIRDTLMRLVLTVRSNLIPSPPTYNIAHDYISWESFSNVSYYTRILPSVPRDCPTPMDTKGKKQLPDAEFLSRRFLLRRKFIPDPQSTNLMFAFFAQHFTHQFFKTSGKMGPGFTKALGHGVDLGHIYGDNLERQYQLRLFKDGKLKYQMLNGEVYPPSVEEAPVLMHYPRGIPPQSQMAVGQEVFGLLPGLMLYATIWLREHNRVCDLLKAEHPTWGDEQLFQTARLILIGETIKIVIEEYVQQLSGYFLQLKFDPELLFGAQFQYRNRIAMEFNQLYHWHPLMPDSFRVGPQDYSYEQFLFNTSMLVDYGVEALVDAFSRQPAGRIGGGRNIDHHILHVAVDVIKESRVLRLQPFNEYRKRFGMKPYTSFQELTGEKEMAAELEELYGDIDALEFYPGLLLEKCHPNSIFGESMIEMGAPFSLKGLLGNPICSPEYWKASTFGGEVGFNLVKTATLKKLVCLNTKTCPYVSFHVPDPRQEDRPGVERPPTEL
Put plainly: In vitro human COX-1 enzymatic inhibitory activity (Cayman COX inhibitor screening assay kit). It counts as biochemical. As to conditions: mean ± SEM of triplicate determinations. The method, then: (§1) Inhibitory activities were defined as a test compound concentration achieving 50% human COX-1 or human COX-2 inhibition. The selectivity of compounds was referred to as a compound’s selectivity index values calculated as IC50 (COX-1)/IC50 (COX-2).
(§2) In vitro human COX-1 and human COX-2 enzymatic inhibitory activity of the tested compounds as well as the reference drugs was carried out according to the previously mentioned procedures; for details, see Page S15, Supplementary File.
(§3) 4.2. Biological screening
(§4) 4.2.1. In vitro human COX-1 and human COX-2 enzymatic inhibitory activities In vitro human COX-1 and human COX-2 enzymatic inhibitory activity of the tested compounds as well as the reference drugs was carried out according to the previously mentioned procedures [1][2]depending on Cayman colorimetric COX (ovine) inhibitor screening assay kit (Catalog No.
(§5) All reagents, test solutions and experimental procedures were performed in correspondence to both the manufacturer’s instructions and previously reported methods. Briefly, […] of different concentrations of tested compound solutions were added to a series of supplied reaction buffer solutions (960 µL, 0.1 M Tris-HCl, pH 8.0 containing 5 mM EDTA and 2 mM phenol) with either COX-1 or COX-2 (10 µL) enzyme in the presence of heme (10 µL). 10 µL of Arachidonic Acid (100 µM) solution were added to the mixtures of the enzyme and tested compounds, After incubating for 5 min at 25 °C followed by stopping COX reaction by adding of 50 µL of 1 M HCl. Moreover, after adding 100 µL of saturated stannous chloride solution, the absorbance was measured spectrophotometrically using plate reader. measuring the […]
(§6) percentage of human COX-1 or human COX-2 enzymatic inhibition of five different concentrations of each compound and then concentration-inhibition response curve were plotted to obtain IC50 values(three determinations). […]

In another series the target is T2, human COX-2 (Homo sapiens, UniProt P35354).
T2 construct: purchased Cayman Chemicals Inc., Ann Arbor, MI, USA 560131
T2 sequence (P35354 18-604): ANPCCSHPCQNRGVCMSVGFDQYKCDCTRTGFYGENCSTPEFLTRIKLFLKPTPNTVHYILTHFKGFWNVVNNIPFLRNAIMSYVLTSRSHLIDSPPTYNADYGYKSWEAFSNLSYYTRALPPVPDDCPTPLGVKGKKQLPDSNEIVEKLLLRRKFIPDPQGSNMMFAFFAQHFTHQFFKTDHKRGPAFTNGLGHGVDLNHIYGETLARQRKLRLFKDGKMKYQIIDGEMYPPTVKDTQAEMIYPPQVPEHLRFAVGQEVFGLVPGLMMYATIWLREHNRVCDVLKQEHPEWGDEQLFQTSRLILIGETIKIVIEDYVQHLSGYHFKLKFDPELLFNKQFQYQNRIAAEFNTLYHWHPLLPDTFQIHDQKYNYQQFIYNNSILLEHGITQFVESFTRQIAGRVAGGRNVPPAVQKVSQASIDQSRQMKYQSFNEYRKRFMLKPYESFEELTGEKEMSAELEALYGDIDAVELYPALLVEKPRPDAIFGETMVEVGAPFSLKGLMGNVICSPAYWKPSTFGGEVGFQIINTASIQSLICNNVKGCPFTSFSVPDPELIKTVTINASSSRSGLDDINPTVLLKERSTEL
As to the kind of experiment: In vitro human COX-2 enzymatic inhibitory activity (Cayman COX inhibitor screening assay kit). It counts as biochemical. As to conditions: for SI COX-1/COX-2: COX-2 selectivity index: COX-1 IC50/COX-2 IC50; for IC50: mean ± SEM of triplicate determinations. As for the experimental part: as §1, §2, §3, §4, §5, §6

As usually defined, the IC50 is the concentration that inhibits the measured activity by half. Higher therefore signals weaker potency. Broadly, the melting point is the temperature of the solid-liquid transition. Compound `CC(=O)c1nnn(-c2ccc(S(=O)(=O)Nc3ncccn3)cc2)c1C` [Compound 4c, 4-(4-Acetyl-5-methyl-1H-1,2,3-triazol-1-yl)-N-(pyrimidin-2-yl)benzenesulfonamide] showed a melting point of 233 to 235 °C. In addition, in series [1], it took 8.23 ± 0.0667 µM to reach half-maximal inhibition (IC50). Besides, on human COX-2, the “SI COX-1/COX-2” value stood at 91.44 and half-maximal inhibition (IC50) was put at 0.09 ± 0.0003 µM.
Regarding `CC(=O)c1nnn(-c2ccc(S(=O)(=O)Nc3nccc(C)n3)cc2)c1C` [Compound 4d, 4-(4-Acetyl-5-methyl-1H-1,2,3-triazol-1-yl)-N-(4-methylpyrimidin-2-yl)benzenesulfonamide], the melting point lay in the range of 241 to 243 °C. The compound further displayed an IC50 in series [1] of 9.27 ± 0.0667 µM. On human COX-2, the “SI COX-1/COX-2” value came out at 84.27 and the half-maximal inhibitory concentration (IC50) is 0.11 ± 0.0057 µM.
The matching figures for `CC(=NNC(=O)C(C)c1ccc(CC(C)C)cc1)c1nnn(-c2ccc(S(N)(=O)=O)cc2)c1C` (stereo not drawn) [Compound 6a, 4-(4-(1-(2-(2-(4-Isobutylphenyl)propanoyl)hydrazineylidene)ethyl)-5-methyl-1H-1,2,3-triazol-1-yl)benzenesulfonamide]: 205 to 207 °C, 9.13 ± 0.0882 µM, 114.13 and 0.08 ± 0.0006 µM.
The matching figures for `CC(=NNC(=O)C(C)c1ccc(CC(C)C)cc1)c1nnn(-c2ccc(S(=O)(=O)Nc3ncccn3)cc2)c1C` (stereo not drawn) [Compound 6c, 4-(4-(1-(2-(2-(4-Isobutylphenyl)propanoyl)hydrazineylidene)ethyl)-5-methyl-1H-1,2,3-triazol-1-yl)-N-(pyrimidin-2-yl)benzenesulfonamide]: 257 to 259 °C, 11.17 ± 0.0333 µM, 159.57 and 0.07 ± 0.0006 µM.
The matching figures for `CC(=NNC(=O)Cc1ccccc1Nc1c(Cl)cccc1Cl)c1nnn(-c2ccc(S(N)(=O)=O)cc2)c1C` [Compound 6d, 4-(4-(1-(2-(2-(2-((2,6-Dichlorophenyl)amino)phenyl)acetyl)hydrazineylidene)ethyl)-5-methyl-1H-1,2,3-triazol-1-yl)benzenesulfonamide]: 241 to 243 °C, 8.4 ± 0.0577 µM, 105 and 0.08 ± 0.0009 µM.
As for `CC(=NNC(=O)Cc1ccccc1Nc1c(Cl)cccc1Cl)c1nnn(-c2ccc(S(=O)(=O)Nc3ncccn3)cc2)c1C` [Compound 6f, 4-(4-(1-(2-(2-(2-((2,6-Dichlorophenyl)amino)phenyl)acetyl)hydrazineylidene)ethyl)-5-methyl-1H-1,2,3-triazol-1-yl)-N-(pyrimidin-2-yl)benzenesulfonamide], the melting point fell in the range of 276 to 278 °C. In addition, in series [1], the IC50 was found to be 12.67 ± 0.0333 µM. Besides, at human COX-2, the “SI COX-1/COX-2” value was 158.38 and the IC50 turned out to be 0.08 ± 0.0007 µM.
The matching figures for `CC(=NNC(=O)c1ccccc1O)c1nnn(-c2ccc(S(N)(=O)=O)cc2)c1C` [Compound 6g, 4-(4-(1-(2-(2-Hydroxybenzoyl)hydrazineylidene)ethyl)-5-methyl-1H-1,2,3-triazol-1-yl)benzenesulfonamide]: 220 to 222 °C, 6.67 ± 0.0667 µM, 83.38 and 0.08 ± 0.0006 µM.
On the same counts, the results for `CC(=NNC(=O)c1ccccc1O)c1nnn(-c2ccc(S(=O)(=O)Nc3nccs3)cc2)c1C` [Compound 6h, 4-(4-(1-(2-(2-Hydroxybenzoyl)hydrazineylidene)ethyl)-5-methyl-1H-1,2,3-triazol-1-yl)-N-(thiazol-2-yl)benzenesulfonamide] are 227 to 229 °C, 8.27 ± 0.0667 µM, 91.89 and 0.09 ± 0.0006 µM.
The compound `CC(=NNC(=O)c1ccccc1O)c1nnn(-c2ccc(S(=O)(=O)Nc3ncccn3)cc2)c1C` [Compound 6i, 4-(4-(1-(2-(2-Hydroxybenzoyl)hydrazineylidene)ethyl)-5-methyl-1H-1,2,3-triazol-1-yl)-N-(pyrimidin-2-yl)benzenesulfonamide] yielded a melting point of 248 to 250 °C. This compound also registered an IC50 in series [1] of 10.23 ± 0.0882 µM. Moreover, at human COX-2, the “SI COX-1/COX-2” value is listed as 146.14 and the IC50 was 0.07 ± 0.0006 µM.

The values are drawn from PMC9609428, “Rational Design and Synthesis of New Selective COX-2 Inhibitors with In Vivo PGE2-Lowering Activity by Tethering Benzenesulfonamide and 1,2,3-Triazole Pharmacophores to Some NSAIDs” (Pharmaceuticals, 2022).
